Data taken from patent US8846947B2, “Benzimidazoles and related analogs as sirtuin modulators” (GlaxoSmithKline LLC, priority 2008, dated 2014).
Where a name gives a salt, the structure may show the parent alone.

target: T1, SIRT1 (Homo sapiens, UniProt Q96EB6); test: Mass spectrometry based SIRT1 deacetylase activation assay (acetylated p53-derived peptide substrate); type: biochemical
T1 sequence (Q96EB6 1-747): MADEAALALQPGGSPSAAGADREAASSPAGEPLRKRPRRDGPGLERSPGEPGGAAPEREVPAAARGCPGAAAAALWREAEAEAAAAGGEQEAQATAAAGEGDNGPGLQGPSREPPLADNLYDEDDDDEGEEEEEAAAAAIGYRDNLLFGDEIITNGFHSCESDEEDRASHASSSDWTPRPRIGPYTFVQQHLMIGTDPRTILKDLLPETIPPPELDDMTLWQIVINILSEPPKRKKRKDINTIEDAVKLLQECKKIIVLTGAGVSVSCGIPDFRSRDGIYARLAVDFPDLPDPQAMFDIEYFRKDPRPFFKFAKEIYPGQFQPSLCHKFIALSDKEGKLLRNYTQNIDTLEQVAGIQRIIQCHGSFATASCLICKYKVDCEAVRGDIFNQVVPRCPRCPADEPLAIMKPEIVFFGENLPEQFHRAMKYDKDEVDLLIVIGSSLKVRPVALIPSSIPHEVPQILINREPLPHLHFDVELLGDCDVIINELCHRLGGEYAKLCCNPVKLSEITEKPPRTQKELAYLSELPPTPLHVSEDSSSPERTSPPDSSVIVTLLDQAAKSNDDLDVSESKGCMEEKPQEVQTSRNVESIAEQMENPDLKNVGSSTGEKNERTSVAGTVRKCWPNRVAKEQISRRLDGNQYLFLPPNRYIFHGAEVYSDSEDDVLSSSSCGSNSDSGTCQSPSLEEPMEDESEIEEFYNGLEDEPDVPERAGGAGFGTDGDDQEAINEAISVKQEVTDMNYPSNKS
Description: A mass spectrometry based assay was used to identify modulators of SIRT1 activity. The mass spectrometry based assay utilizes a peptide having 20 amino acid residues as follows: Ac-EE-K(biotin)-GQSTSSHSK(Ac)NleSTEG-K(5TMR)-EE-NH2 (SEQ ID NO: 1) wherein K(Ac) is an acetylated lysine residue and Nle is a norleucine. The peptide is labeled with the fluorophore 5TMR (excitation 540 nm/emission 580 nm) at the C-terminus. The sequence of the peptide substrate is based on p53 with several modifications. In addition, the methionine residue naturally present in the sequence was replaced with the norleucine because the methionine may be susceptible to oxidation during synthesis and purification.
The mass spectrometry assay is conducted as follows: 0.5 μM peptide substrate and 120 μM βNAD^+ is incubated with 10 nM SIRT1 for 25 minutes at 25° C. in a reaction buffer (50 mM Tris-acetate pH 8, 137 mM NaCl, 2.7 mM KCl, 1 mM MgCl2, 5 mM DTT, 0.05% BSA). Test compounds may be added to the reaction as described above. […] After the 25 minute incubation with SIRT1, 10 μL of 10% formic acid is added to stop the reaction. Reactions are sealed and frozen for later mass spec analysis. Determination of the mass of the substrate peptide allows for precise determination of the degree of acetylation (i.e. starting material) as compared to deacetylated peptide (product).
A control for inhibition of sirtuin activity is conducted by adding 1 μL of 500 mM nicotinamide as a negative control at the start of the reaction (e.g., permits determination of maximum sirtuin inhibition). A control for activation of sirtuin activity is conducted using 10 nM of sirtuin protein, with 1 μL of DMSO in place of compound, to determine the amount of deacetylation of the substrate at a given timepoint within the linear range of the assay. This timepoint is the same as that used for test compounds and, within the linear range, the endpoint represents a change in velocity.
For the above assay, SIRT1 protein was expressed and purified as follows. […] The protein was expressed by induction with 1 mM IPTG as an N-terminal His-tag fusion protein at 18° C. overnight and harvested at 30,000×g. Cells were lysed with lysozyme in lysis buffer (50 mM Tris-HCl, 2 mM Tris[2-carboxyethyl]phosphine (TCEP), 10 μM ZnCl2, 200 mM NaCl) and further treated with sonication for 10 min for complete lysis. The protein was purified over a Ni-NTA column (Amersham) and fractions containing pure protein were pooled, concentrated and run over a sizing column (Sephadex S200 26/60 global). The peak containing soluble protein was collected and run on an Ion-exchange column (MonoQ). Gradient elution (200 mM-500 mM NaCl) yielded pure protein. This protein was concentrated and dialyzed against dialysis buffer (20 mM Tris-HCl, 2 mM TCEP) overnight. The protein was aliquoted and frozen at −80° C. until further use.
Sirtuin modulating compounds that activated SIRT1 were identified using the assay described above and are shown below in Table 1. The EC1.5 values for the activating compounds are represented by A (EC1.5<1.0 uM), B (EC1.5 1-25 uM), C (EC1.5 >25 uM). The percent maximum fold activation is represented by A (Fold activation >200%) or B (Fold Activation <200%).

Compound	EC1.5	Fold Act. (percent maximum fold activation)
O=C(Nc1nccs1)c1cccc2[nH]c(-c3ccc(F)c(Cl)c3)nc12 [Compound 235]	B (EC1.5 1-25 uM)	A (Fold activation >200%)
O=C(Nc1nccs1)c1cccc2[nH]c(-c3cccc(N4CCCC4)c3)nc12 [Compound 236]	B (EC1.5 1-25 uM)	B (Fold Activation <200%)
O=C(Nc1nccs1)c1cccc2[nH]c(-c3ccncc3)nc12 [Compound 237]	B (EC1.5 1-25 uM)	B (Fold Activation <200%)
O=C(Nc1nccs1)c1cccc2[nH]c(-c3nccs3)nc12 [Compound 238]	B (EC1.5 1-25 uM)	B (Fold Activation <200%)
O=C(Nc1nncs1)c1cccc2[nH]c(-c3cccc(C(F)(F)F)c3)nc12 [Compound 239]	C (EC1.5 >25 uM)	B (Fold Activation <200%)
CC(C)(C)c1nnc(NC(=O)c2cccc3[nH]c(-c4cccc(C(F)(F)F)c4)nc23)s1 [Compound 240]	C (EC1.5 >25 uM)	B (Fold Activation <200%)
O=C(Nc1ncccn1)c1cccc2[nH]c(-c3cccc(C(F)(F)F)c3)nc12 [Compound 241]	C (EC1.5 >25 uM)	B (Fold Activation <200%)
O=C(Nc1ccncc1)c1cccc2[nH]c(-c3cccc(C(F)(F)F)c3)nc12 [Compound 242]	B (EC1.5 1-25 uM)	B (Fold Activation <200%)
O=C(Nc1cccnc1)c1cccc2[nH]c(-c3ccccc3C(F)(F)F)nc12 [Compound 243]	A (EC1.5<1.0 uM)	A (Fold activation >200%)
Cc1nc(-c2nc3c(C(=O)Nc4nccs4)cccc3[nH]2)c(C)o1 [Compound 244]	B (EC1.5 1-25 uM)	A (Fold activation >200%)
O=C(Nc1nccs1)c1cccc2[nH]c(-c3cccnc3Cl)nc12 [Compound 245]	B (EC1.5 1-25 uM)	A (Fold activation >200%)
O=C(Nc1nccs1)c1cccc2[nH]c(-c3ccc(Cl)nc3)nc12 [Compound 246]	B (EC1.5 1-25 uM)	B (Fold Activation <200%)
O=C(Nc1nccs1)c1cccc2[nH]c(-c3ccc(N4CCOCC4)nc3)nc12 [Compound 247, 2-(6-morpholinopyridin-3-yl)-N-(thiazol-2-yl)-1H-benzo[d]imidazole-4-carboxamide]	A (EC1.5<1.0 uM)	A (Fold activation >200%)
O=C(Nc1ccccn1)c1cccc2[nH]c(-c3ccccc3C(F)(F)F)nc12 [Compound 248]	B (EC1.5 1-25 uM)	A (Fold activation >200%)
O=C(Nc1nccs1)c1cccc2[nH]c(-c3ccco3)nc12 [Compound 249]	B (EC1.5 1-25 uM)	A (Fold activation >200%)
O=C(Nc1nccs1)c1cccc2[nH]c(-c3cccnc3N3CCOCC3)nc12 [Compound 250, 2-(2-morpholinopyridin-3-yl)-N-(thiazol-2-yl)-1H-benzo[d]imidazole-4-carboxamide]	B (EC1.5 1-25 uM)	A (Fold activation >200%)
O=C(Nc1nccs1)c1cccc2[nH]c(-c3ccc(N4CCNCC4)nc3)nc12 [Compound 251, 2-(6-(piperazin-1-yl)pyridin-3-yl)-N-(thiazol-2-yl)-1H-benzo[d]imidazole-4-carboxamide hydrochloride]	A (EC1.5<1.0 uM)	A (Fold activation >200%)

Compound	EC1.5	Fold Act. (percent maximum fold activation)
O=C(NCc1ccccn1)c1cccc2[nH]c(-c3cccc(C(F)(F)F)c3)nc12 [Compound 252]	B (EC1.5 1-25 uM)	A (Fold activation >200%)
Cn1nc(-c2ccccc2)cc1-c1nc2c(C(=O)Nc3nccs3)cccc2[nH]1 [Compound 253]	A (EC1.5<1.0 uM)	A (Fold activation >200%)
O=C(Nc1nccs1)c1cccc2[nH]c(-c3ccnn3-c3ccccc3)nc12 [Compound 254]	A (EC1.5<1.0 uM)	A (Fold activation >200%)
O=C(Nc1nccs1)c1cccc2[nH]c(-c3ccccc3-c3ccccc3)nc12 [Compound 255]	B (EC1.5 1-25 uM)	A (Fold activation >200%)
O=C(Nc1nccs1)c1cccc2[nH]c(-c3ccccc3N3CCOCC3)nc12 [Compound 256]	B (EC1.5 1-25 uM)	A (Fold activation >200%)
O=C(Nc1nccs1)c1cccc2[nH]c(-c3cccc(Cl)c3F)nc12 [Compound 257]	B (EC1.5 1-25 uM)	A (Fold activation >200%)
O=C(Nc1nccs1)c1cccc2[nH]c(-c3cc(Cl)ccc3C(F)(F)F)nc12 [Compound 258]	B (EC1.5 1-25 uM)	A (Fold activation >200%)
CN(C)CCNc1ccc(-c2nc3c(C(=O)Nc4nccs4)cccc3[nH]2)cn1 [Compound 259]	B (EC1.5 1-25 uM)	A (Fold activation >200%)
Cc1cnc(NC(=O)c2cccc3[nH]c(-c4cccc(C(F)(F)F)c4)nc23)s1 [Compound 260]	B (EC1.5 1-25 uM)	B (Fold Activation <200%)
Cc1noc(C)c1NC(=O)c1cccc2[nH]c(-c3cccc(C(F)(F)F)c3)nc12 [Compound 261]	C (EC1.5 >25 uM)	B (Fold Activation <200%)
O=C(Nc1ccncc1)c1cccc2[nH]c(-c3ccccc3C(F)(F)F)nc12 [Compound 262]	A (EC1.5<1.0 uM)	A (Fold activation >200%)
O=C(Nc1nccs1)c1cccc2[nH]c(-c3ccc(F)cc3C(F)(F)F)nc12 [Compound 263]	A (EC1.5<1.0 uM)	A (Fold activation >200%)
O=C(Nc1nccs1)c1cccc2[nH]c(-c3c(F)cccc3C(F)(F)F)nc12 [Compound 264]	B (EC1.5 1-25 uM)	A (Fold activation >200%)
O=C(Nc1nccs1)c1cccc2[nH]c(-c3c(F)cccc3F)nc12 [Compound 265]	B (EC1.5 1-25 uM)	A (Fold activation >200%)
O=C(Nc1nccs1)c1cccc2[nH]c(-c3c(F)cccc3Cl)nc12 [Compound 266]	B (EC1.5 1-25 uM)	A (Fold activation >200%)
O=C(Nc1nccs1)c1cccc2[nH]c(-c3ccccc3CN3CCOCC3)nc12 [Compound 267]	B (EC1.5 1-25 uM)	A (Fold activation >200%)
